The first experiment has as its system RS4;11 cells. Kind of experiment: Cell viability assay (CellTiter-Glo) in RS4;11 cells. Format: cell-based. The note with it: Homo sapiens, 72 h; RS4;11 ALL cells treated for three days; read-out: cell viability inhibition IC50. The protocol:
Specific exemplary heterobifunctional compounds were first characterized using cell viability assays. RS4;11 ALL cells were treated with bifunctional degraders for three days. The IC50 values ranged from 2 nM to over 10 uM.
MV4;11, RS4;11, Kasumi-1, HEL and other cells were treated with NVP-BSK805, TG101209 or selected degraders for 3 days at indicated concentrations following a 3-fold serial dilution.
HEL, RS4;11, MV4;11, Kasumi-1 and other cells were cultured at 37° C. with 5% CO2 in RPMI 1640 or DMEM Medium supplemented with 10% fetal bovine serum. Cells were authenticated using the short tandem repeat (STR) assays. Mycoplasma test results were negative.
Cells were seeded at a density of 5000 cells per well in 96-well assay plates and treated with test compounds following a 8-point or 12-point 3-fold serial dilution. Three days later, cell viability was determined using the CellTiter-Glo assay kit according to the manufacturer's instructions. The dose-response curves were determined and IC50 values were calculated using the GraphPad Prism software following a nonlinear regression (least squares fit) method.
As for `O=C1CCC(N2C(=O)c3ccc(NCCCCCCC(=O)N4CCC(n5cc(-c6cnc7cccc(-c8cc(F)c(CN9CCOCC9)c(F)c8)c7n6)cn5)CC4)cc3C2=O)C(=O)N1` (centres unmarked) [JA-188, 5-((7-(4-(4-(8-(3,5-difluoro-4-(morpholinomethyl)phenyl)quinoxalin-2-yl)-1H-pyrazol-1-yl)piperidin-1-yl)-7-oxoheptyl)amino)-2-(2,6-dioxopiperidin-3-yl)isoindoline-1,3-dione], the IC50 was under 100 nM.

The same experiment, now with this note: Homo sapiens, 72 h; RS4;11 cells; cell viability, 3 days, CellTiter-Glo; read-out: IC50.
Consider `O=C1CCC(N2Cc3cc(C#CCCCCC(=O)N4CCC(n5cc(-c6cnc7cccc(-c8cc(F)c(CN9CCOCC9)c(F)c8)c7n6)cn5)CC4)ccc3C2=O)C(=O)N1` (centres unmarked) [JA-271, 3-(5-(7-(4-(4-(8-(3,5-Difluoro-4-(morpholinomethyl)phenyl)quinoxalin-2-yl)-1H-pyrazol-1-yl)piperidin-1-yl)-7-oxohept-1-yn-1-yl)-1-oxoisoindolin-2-yl)piperidine-2,6-dione], for which the IC50 came to 157 nM.

Consider `O=C1CCC(N2C(=O)c3ccc(NCCOCCC(=O)N4CCC(n5cc(-c6cnc7cccc(-c8cc(F)c(CN9CCOCC9)c(F)c8)c7n6)cn5)CC4)cc3C2=O)C(=O)N1` (centres unmarked) [JA-181, 5-((2-(3-(4-(4-(8-(3,5-Difluoro-4-(morpholinomethyl)phenyl)quinoxalin-2-yl)-1H-pyrazol-1-yl)piperidin-1-yl)-3-oxopropoxy)ethyl)amino)-2-(2,6-dioxopiperidin-3-yl)isoindoline-1,3-dione], for which the IC50 was 1690 nM. As to `CS(=O)(=O)c1ccc(-c2cccc3nc(Nc4ccc(N5CCN(C(=O)CCOCCOCCOCCOCCOCCNc6ccc7c(c6)C(=O)N(C6CCC(=O)NC6=O)C7=O)CC5)cc4)nn23)cc1` (centres unmarked) [JA-193, 2-(2,6-Dioxopiperidin-3-yl)-5-((18-(4-(4-((5-(4-(methylsulfonyl)phenyl)-[1,2,4]triazolo[1,5-a]pyridin-2-yl)amino)phenyl)piperazin-1-yl)-18-oxo-3,6,9,12,15-pentaoxaoctadecyl)amino)isoindoline-1,3-dione], the IC50 is over 10000 nM. The same measure, in the same setting: for `CS(=O)(=O)c1ccc(-c2cccc3nc(Nc4ccc(N5CCN(C(=O)CCCCCNc6ccc7c(c6)C(=O)N(C6CCC(=O)NC6=O)C7)CC5)cc4)nn23)cc1` (centres unmarked) [JA-276, 3-(6-((6-(4-(4-((5-(4-(Methylsulfonyl)phenyl)-[1,2,4]triazolo[1,5-a]pyridin-2-yl)amino)phenyl)piperazin-1-yl)-6-oxohexyl)amino)-1-oxoisoindolin-2-yl)piperidine-2,6-dione] the value was over 10000 nM. The same measure, in the same setting: the value for `Cc1cnc(Nc2ccc(N3CCN(C(=O)CCCCNc4cccc5c4C(=O)N(C4CCC(=O)NC4=O)C5=O)CC3)cc2)nc1Nc1cccc(S(=O)(=O)NC(C)(C)C)c1` (centres unmarked) [JA-107, N-(tert-Butyl)-3-((2-((4-(4-(5-((2-(2,6-dioxopiperidin-3-yl)-1,3-dioxoisoindolin-4-yl)amino)pentanoyl)piperazin-1-yl)phenyl)amino)-5-methylpyrimidin-4-yl)amino)benzenesulfonamide] was 2270 nM; that for `Cc1cnc(Nc2ccc(N3CCN(C(=O)CCCCCCNc4ccc5c(c4)C(=O)N(C4CCC(=O)NC4=O)C5=O)CC3)cc2)nc1Nc1cccc(S(=O)(=O)NC(C)(C)C)c1` (centres unmarked) [JA-230, N-(tert-butyl)-3-((2-((4-(4-(7-((2-(2,6-dioxopiperidin-3-yl)-1,3-dioxoisoindolin-5-yl)amino)heptanoyl)piperazin-1-yl)phenyl)amino)-5-methylpyrimidin-4-yl)amino)benzenesulfonamide] was over 10000 nM. The same measure, in the same setting: for `O=C1CCC(N2C(=O)c3ccc(NCCCCCCC(=O)N4CCC(n5cc(-c6cnc7cccc(-c8cc(F)c(CN9CCOCC9)c(F)c8)c7n6)cn5)CC4)cc3C2=O)C(=O)N1` (centres unmarked) [JA-188, 5-((7-(4-(4-(8-(3,5-difluoro-4-(morpholinomethyl)phenyl)quinoxalin-2-yl)-1H-pyrazol-1-yl)piperidin-1-yl)-7-oxoheptyl)amino)-2-(2,6-dioxopiperidin-3-yl)isoindoline-1,3-dione] the value was 69.7 nM; for `O=C1CCC(N2C(=O)c3ccc(CCCCCCCN4CCC(n5cc(-c6cnc7cccc(-c8cc(F)c(CN9CCOCC9)c(F)c8)c7n6)cn5)CC4)cc3C2=O)C(=O)N1` (centres unmarked) [JA-265, 5-(7-(4-(4-(8-(3,5-Difluoro-4-(morpholinomethyl)phenyl)quinoxalin-2-yl)-1H-pyrazol-1-yl)piperidin-1-yl)heptyl)-2-(2,6-dioxopiperidin-3-yl)isoindoline-1,3-dione], 1350 nM.

Regarding `Cc1ncsc1-c1ccc(CNC(=O)[C@@H]2C[C@@H](O)CN2C(=O)[C@@H](NC(=O)CCOCCOCCOCCOCCOCCC(=O)N2CCN(c3ccc(Nc4nc5cccc(-c6ccc(S(C)(=O)=O)cc6)n5n4)cc3)CC2)C(C)(C)C)cc1` [JA-071, (2S,4R)-1-((S)-2-(tert-Butyl)-22-(4-(4-((5-(4-(methylsulfonyl)phenyl)-[1,2,4]triazolo[1,5-a]pyridin-2-yl)amino)phenyl)piperazin-1-yl)-4,22-dioxo-7,10,13,16,19-pentaoxa-3-azadocosanoyl)-4-hydroxy-N-(4-(4-methylthiazol-5-yl)benzyl)pyrrolidine-2-carboxamide], the IC50 came out at 960 nM. As to `Cc1cnc(Nc2ccc(N3CCN(CC(=O)NCCCCCCC(=O)N[C@H](C(=O)N4C[C@H](O)C[C@H]4C(=O)NCc4ccc(-c5scnc5C)cc4)C(C)(C)C)CC3)cc2)nc1Nc1cccc(S(=O)(=O)NC(C)(C)C)c1` [JA-102, (2S,4R)-1-((S)-2-(7-(2-(4-(4-((4-((3-(N-(tert-Butyl)sulfamoyl)phenyl)amino)-5-methylpyrimidin-2-yl)amino)phenyl)piperazin-1-yl)acetamido)heptanamido)-3,3-dimethylbutanoyl)-4-hydroxy-N-(4-(4-methylthiazol-5-yl)benzyl)pyrrolidine-2-carboxamide], the IC50 is over 10000 nM. In the case of `CS(=O)(=O)c1ccc(-c2cccc3nc(Nc4ccc(N5CCN(C(=O)CNc6cccc7c6C(=O)N(C6CCC(=O)NC6=O)C7=O)CC5)cc4)nn23)cc1` (centres unmarked) [JA-014, 2-(2,6-Dioxo-piperidin-3-yl)-4-[2-(4-{4-[5-(4-methanesulfonyl-phenyl)-[1,2,4]triazolo[1,5-a]pyridin-2-ylamino]-phenyl}-piperazin-1-yl)-2-oxo-ethylamino]-isoindole-1,3-dione], the IC50 was 3340 nM. Regarding `Cc1cnc(Nc2ccc(N3CCN(CC(=O)NCCCCC(=O)N[C@H](C(=O)N4C[C@H](O)C[C@H]4C(=O)NCc4ccc(-c5scnc5C)cc4)C(C)(C)C)CC3)cc2)nc1Nc1cccc(S(=O)(=O)NC(C)(C)C)c1` [JA-100, (2S,4R)-1-((S)-2-(5-(2-(4-(4-((4-((3-(N-(tert-Butyl)sulfamoyl)phenyl)amino)-5-methylpyrimidin-2-yl)amino)phenyl)piperazin-1-yl)acetamido)pentanamido)-3,3-dimethylbutanoyl)-4-hydroxy-N-(4-(4-methylthiazol-5-yl)benzyl)pyrrolidine-2-carboxamide], the IC50 was over 10000 nM. Still for that read-out and setting: the value for `Cc1ncsc1-c1ccc(CNC(=O)[C@@H]2C[C@@H](O)CN2C(=O)[C@@H](NC(=O)CCOCCOCCOCCNC(=O)CN2CCC(n3cc(-c4cnc5cccc(-c6cc(F)c(CN7CCOCC7)c(F)c6)c5n4)cn3)CC2)C(C)(C)C)cc1` [JA-151, (2S,4R)-1-((S)-17-(tert-Butyl)-1-(4-(4-(8-(3,5-difluoro-4-(morpholinomethyl)phenyl)quinoxalin-2-yl)-1H-pyrazol-1-yl)piperidin-1-yl)-2,15-dioxo-6,9,12-trioxa-3,16-diazaoctadecan-18-oyl)-4-hydroxy-N-(4-(4-methylthiazol-5-yl)benzyl)pyrrolidine-2-carboxamide] was over 10000 nM.

Source of the values: US20230093099A1, “COMPOUNDS AND METHODS OF TREATING CANCERS” (CULLGEN (SHANGHAI), INC., priority 2019, published 2023).
